According to patent EP4656640A1, “IRAK4 DEGRADER AND USE THEREOF” (Shanghai Qilu Pharmaceutical Research and Development …, priority 2023, dated 2024):
Like-named read-outs stand apart in the source and are kept apart here.

Tests used:
IRAK4 [1] = molecular target: T1, IRAK4 (Homo sapiens, UniProt Q9NWZ3); test: Degradation of IRAK4 in monocytes of human PBMCs (flow cytometry); type: cell-based; design: endogenous in cells; conditions: human PBMC monocytes, 24 hours incubation
T1 sequence (Q9NWZ3 1-460): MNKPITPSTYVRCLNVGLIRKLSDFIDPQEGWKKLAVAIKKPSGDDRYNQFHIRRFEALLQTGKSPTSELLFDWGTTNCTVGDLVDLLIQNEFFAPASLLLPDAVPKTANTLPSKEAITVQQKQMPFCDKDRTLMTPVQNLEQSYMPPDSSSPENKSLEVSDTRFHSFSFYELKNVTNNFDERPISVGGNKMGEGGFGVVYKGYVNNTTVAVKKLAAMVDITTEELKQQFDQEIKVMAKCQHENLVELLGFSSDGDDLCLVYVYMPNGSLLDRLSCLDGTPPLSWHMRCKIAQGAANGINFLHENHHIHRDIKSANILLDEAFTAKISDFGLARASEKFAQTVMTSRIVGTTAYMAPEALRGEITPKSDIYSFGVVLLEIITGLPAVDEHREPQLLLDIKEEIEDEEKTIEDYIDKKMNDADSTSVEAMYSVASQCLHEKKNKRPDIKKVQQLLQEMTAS
Description: The degradation level of IRAK4 in monocytes of human peripheral blood mononuclear cells (hPBMCs) was detected by flow cytometry.
On day 1, the cells were seeded at a density of 2 × 10^5 cells per well in 100 µL in a 96-well plate.
(§1) The compounds were dissolved in DMSO to a final concentration of 10 mM, and then diluted with culture medium at a 1:5 concentration gradient to prepare 10 concentrations. The diluted solutions were added to the cells to obtain a maximum final concentration of 2 µM. Wells containing cells treated with 0.1% DMSO served as the positive control
The cells were incubated at 37°C in a 5% CO2 incubator for 24 hours.
(§2) The cells were stained for viability discrimination using the LIVE/DEAD™ Fixable Blue Dead Cell Stain Kit, and surface staining of monocytes was performed with PE Mouse Anti-Human CD14, followed by incubation at 4°C for 30 minutes.
Fix buffer I, equal in volume to the cultured cells, was added, and the cells were fixed at 37°C for 10 minutes.
150 µL of Perm III reagent was added, and the cells were incubated at 4°C for 30 minutes to permeabilize the membranes.
(§3) Flow cytometry analysis was performed using a flow cytometer.
The flow cytometry data were analyzed using Flowjo software. Data presentation and DC50 calculation were performed using Prism 8.0.2 (GraphPad).

IRAK4 [2] = molecular target: T1, IRAK4; test: Degradation of IRAK4 in SU-DHL-2 cells (flow cytometry); type: cell-based; design: The degradation level of IRAK4 protein in SU-DHL-2 cell line by the compounds was detected by flow cytometry; endogenous in cells; host or cells: SU-DHL-2; OCI-LY3; conditions: SU-DHL-2 cells, 24 hours incubation; read-out: SU-DHL-2 DC50
Description: The degradation level of IRAK4 protein in SU-DHL-2 cell line by the compounds was detected by flow cytometry.
as §1, with “Step 2: On day 1, the cells were seeded at a density of 2 × 10^5 cells per well in 100 µL in a 96-well plate. The compounds” for “The compounds”, “[…] The cells were incubated at 37°C in a 5% CO2 incubator for 24 hours.” for “positive control”
as §2, with “Step 3: After centrifugation, the cells were washed with FACS buffer. The” for “The”
Step 4: After centrifugation, the cells were washed with FACS buffer. Fix buffer I, equal in volume to the cultured cells, was added, and the cells were fixed at 37°C for 10 minutes.
Step 5: After centrifugation, the cells were washed with FACS buffer. 150 µL of Perm III reagent was added, and the cells were incubated at 4°C for 30 minutes to permeabilize the membranes. After centrifugation, the cells were washed with FACS buffer.
as §3
The flow cytometry data were analyzed using Flowjo software. Data presentation and DC50 (half-maximal degradation concentration) calculation were performed using Prism 8.0.2 (GraphPad).

TNFα secretion = test: Inhibition of induced TNFα secretion in human PBMCs (CBA); type: cell-based; conditions: PBMC
Description: (§4) The effect of PROTAC small molecules on inflammatory factors in PBMCs downstream of IRAK4 induced by TLR and IL-1 was detected based on the CBA (cytometric bead array) method.
(§5) Step 2: The density of PBMCs was adjusted to 1 E6/mL, and 150 µL of PBMCs in 1640 complete medium were seeded into a 96-well plate, followed by incubation at 37°C for 1 hour.
(§6) Step 3: 50 µL of serially diluted small molecule (working concentration: 10000 nM, 1:3 dilution) drugs were inoculated into the plate in a 37°C incubator for 8 hours.
(§7) Step 4: 10 µL of stimulants were added respectively, with final concentrations of 100 ng/mL for LPS, 1 µg/mL for R848, and 100 ng/mL for IL-1β.
(§8) Step 5: CBA assay. The concentrations of IL-6 and TNF-α in the cell culture supernatant were determined using Hu IL-6 CBA Flex Set A7 and Hu TNF- CBA Flex Set D9.
(§9) Step 6: Standard samples were prepared: 2500 pg/mL, 1250 pg/mL,...0. A 1:2 serial dilution was performed to obtain 10 concentrations.
(§10) Step 7: The mixed capture beads were resuspended in capture bead diluent (1:50), and cell culture supernatant (50 µL) was added, followed by incubation at room temperature for 10 minutes.
(§11) Step 8: The detection reagent prepared with detection diluent was added, and the mixture was incubated in the dark at room temperature for 3 hours. At the end of incubation, the samples were washed once with wash buffer and resuspended for detection.
(§12) The concentrations of IL-6 and TNFα were calculated using the standard curve method. Data presentation and IC50 calculation were performed using Prism 8.0.2.

IL-6 secretion = test: Inhibition of induced IL-6 secretion in human PBMCs (CBA); type: cell-based; conditions: PBMC
Description: as §4, §5, §6, §7, §8, §9, §10, §11, §12

hERG potassium channel = hERG potassium channel (Homo sapiens, UniProt Q12809); test: Inhibition of hERG potassium channel, whole-cell manual patch clamp in CHO-hERG cells; conditions: @ 1 µM test compound
hERG potassium channel, sequence (Q12809 whole entry): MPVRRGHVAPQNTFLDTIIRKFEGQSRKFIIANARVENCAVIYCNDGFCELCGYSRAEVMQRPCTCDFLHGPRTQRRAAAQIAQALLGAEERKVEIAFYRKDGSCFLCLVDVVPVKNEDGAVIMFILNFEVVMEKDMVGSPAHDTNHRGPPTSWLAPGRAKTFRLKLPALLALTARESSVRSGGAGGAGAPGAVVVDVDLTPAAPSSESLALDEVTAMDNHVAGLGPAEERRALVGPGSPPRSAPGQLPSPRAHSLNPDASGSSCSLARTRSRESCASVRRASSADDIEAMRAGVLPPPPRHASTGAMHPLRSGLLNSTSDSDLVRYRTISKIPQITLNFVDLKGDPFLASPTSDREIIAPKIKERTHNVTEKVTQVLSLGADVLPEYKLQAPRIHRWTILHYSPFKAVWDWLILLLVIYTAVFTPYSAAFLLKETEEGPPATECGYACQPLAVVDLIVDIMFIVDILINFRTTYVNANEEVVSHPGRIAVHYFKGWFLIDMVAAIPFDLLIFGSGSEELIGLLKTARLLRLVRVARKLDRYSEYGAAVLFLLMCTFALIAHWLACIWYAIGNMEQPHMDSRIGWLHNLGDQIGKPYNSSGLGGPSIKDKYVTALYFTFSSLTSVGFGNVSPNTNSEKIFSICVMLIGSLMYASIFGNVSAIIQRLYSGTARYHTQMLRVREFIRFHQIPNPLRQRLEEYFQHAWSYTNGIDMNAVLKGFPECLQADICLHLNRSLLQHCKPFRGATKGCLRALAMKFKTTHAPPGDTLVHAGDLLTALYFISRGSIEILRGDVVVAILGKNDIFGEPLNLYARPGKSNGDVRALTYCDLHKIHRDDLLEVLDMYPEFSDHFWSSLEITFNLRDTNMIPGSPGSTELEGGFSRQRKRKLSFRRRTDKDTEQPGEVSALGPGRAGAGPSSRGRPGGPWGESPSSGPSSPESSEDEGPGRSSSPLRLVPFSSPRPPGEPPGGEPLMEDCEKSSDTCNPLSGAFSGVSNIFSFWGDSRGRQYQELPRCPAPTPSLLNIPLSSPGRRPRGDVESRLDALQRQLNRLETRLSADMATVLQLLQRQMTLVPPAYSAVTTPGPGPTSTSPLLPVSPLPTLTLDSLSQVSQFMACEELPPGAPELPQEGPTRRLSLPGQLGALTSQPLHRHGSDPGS
Description: The effects of compounds on hERG potassium channel (human Ether-a-go-go Related Gene potassium channel) currents were tested using the whole-cell manual voltage-clamp electrophysiological method.
CHO cells stably expressing hERG were cultured in cell culture dishes with a diameter of 35 mm and incubated at 37°C in a 5% CO2 incubator. The cells were passaged at a ratio of 1:5 every 48 hours. The culture medium was formulated as follows: 90% F12 (Invitrogen), 10% fetal bovine serum (Gibco), 100 g/mL G418 (Invitrogen), and 100 g/mL Hygromycin B (Invitrogen). On the day of the experiment, the cell culture medium was aspirated, and the cells were rinsed once with extracellular solution. […] The digestion solution was aspirated, and the cells were resuspended in extracellular solution and then transferred to experimental dishes for electrophysiological recording for later use.
On the day of testing, the compounds were prepared as 10 mM stock solutions in DMSO, then diluted to 1 mM with DMSO, and further diluted 1000-fold with extracellular solution to obtain the desired final test concentration.
hERG potassium channel currents were recorded at room temperature using the whole-cell patch-clamp technique in CHO cells stably expressing the hERG channel. The glass microelectrode was prepared by pulling the glass electrode blank (BF150-86-10, Sutter) with a puller, and the tip resistance after filling with the internal electrode solution was about 2-5 MΩ. The glass microelectrode was inserted into the amplifier probe and then connected to the patch-clamp amplifier. The clamping voltage and data recording were controlled and recorded by pClamp software via a computer, with a sampling frequency of 10 kHz and a filtering frequency of 2 kHz. After obtaining the whole-cell recording, cells were clamped at -100 mV. The hERG potassium current (IhERG) was evoked by applying a 2 s depolarizing voltage step from -100 mV to +20 mV, followed by repolarization to -50 mV for 1 s before returning to -100 mV. […]
Data were analyzed and processed using pClamp, GraphPad Prism 8 and Excel software. […]

[3] = mice, 8 hours after last administration
Description: Experimental animals: SPF-grade male C57BL/6J mice aged 6-8 weeks.
Preparation of compound: 10% DMSO + 50% PEG400 + 40% sterile water for injection. The compound was dissolved in DMSO, followed by the addition of PEG400 and sterile water for injection, and the solution was adjusted to clarity with 6N hydrochloric acid.
Compound administration and IL-33 inflammatory induction: The mice were randomly grouped according to body weight and orally administered with the compound at final doses of 15 mg/kg, 50 mg/kg, and 150 mg/kg, twice daily. At 4 hours after the last administration of the compound, the mice were intraperitoneally injected with 1 µg/100 µL PBS of IL-33 for inflammatory induction.
Termination, sample collection, and data: Plasma, peritoneal lavage fluid, and spleen were collected for subsequent sample index detection.
The experiment was terminated 8 hours after the last administration. The mice were anesthetized, and cardiac blood was collected. The blood samples were anticoagulated with EDTA-K2, centrifuged at 3500 rpm for 15 minutes, and the upper plasma was collected.

[4] = Dog pharmacokinetics, oral gavage (Experiment 3); type: in vivo; conditions: Beagle dogs, oral gavage 2.5 mg/kg, plasma
Description: Healthy Beagle dogs, male, weighing about 8-10 kg, 3 animals per group.
The animals were not fasted and had free access to water.
Venous blood (0.5-0.8 mL) was collected at 15 minutes, 30 minutes, 1 hour, 2 hours, 4 hours, 8 hours, and 24 hours after oral gavage administration, placed in K2EDTA tubes, and centrifuged at 4°C to separate plasma. The concentration of the compound in plasma was determined by liquid chromatography-tandem mass spectrometry.
The main pharmacokinetic parameters were calculated using WinNonlin. […] Table 8. Pharmacokinetic parameters of some compounds of the present disclosure administered orally to dogs

Structure (SMILES) | DC50 (IRAK4 [1]) | DC50 (IRAK4 [2]) | IC50 (TNFα secretion; IL-1β 100 ng/mL, read-out: IC50, TNFα secretion induced by IL-1β) | IC50 (TNFα secretion; LPS 100 ng/mL, read-out: IC50, TNFα secretion induced by LPS) | IC50 (TNFα secretion; R848 1 µg/mL, read-out: IC50, TNFα secretion induced by R848) | IC50 (IL-6 secretion; IL-1β 100 ng/mL, read-out: IC50 of compounds against induced secretion, IL-6, IL-1β) | IC50 (IL-6 secretion; LPS 100 ng/mL, read-out: IC50 of compounds against induced secretion, IL-6, LPS) | IC50 (IL-6 secretion; R848 1 µg/mL, read-out: IC50 of compounds against induced secretion, IL-6, R848) | hERG (inhibition%) (hERG potassium channel) | C8hr Plasma ([3]; PO 15 mpk twice daily) | C8hr Spleen ([3]; PO 15 mpk twice daily) | C8hr Plasma ([3]; PO 50 mpk twice daily) | C8hr Spleen ([3]; PO 50 mpk twice daily) | C8hr Plasma ([3]; PO 150 mpk twice daily) | C8hr Spleen ([3]; PO 150 mpk twice daily) | AUC(0-t) at 24 h [4] | Cmax [4] | MRT inf [4] | half-life [4]
Cn1c(=O)n(C2CCC(=O)NC2=O)c2cccc(C#CC(C)(C)N3CCC(C(=O)N4CCC5(CC4)CC(n4cc(NC(=O)c6cnn7ccc(N8C[C@H]9C[C@@H]8CO9)nc67)c(C(F)F)n4)C5)CC3)c21 (stereo partly shown) [Example 56] | 1.1 nM | 5 nM |  |  |  |  |  |  |  |  |  |  |  |  |  |  |  |  | 
Cn1c(=O)n(C2CCC(=O)NC2=O)c2cccc(C#CCOC3CCN(C[C@H]4CC[C@H](n5cc(NC(=O)c6cnn7ccc(N8C[C@H]9C[C@@H]8CO9)nc67)c(C(F)F)n5)CC4)CC3)c21 (stereo partly shown) [KT-474, reference compound] |  |  | 13 nM | 31 nM | 52 nM | 18 nM | 41 nM | 14 nM | 47% @ 1 µM | 100 ng/mL | 896 ng/mL | 262 ng/mL | 1740 ng/mL | 578 ng/mL | 7262 ng/mL | 380 ng·h/mL | 31 ng/mL | 10.3 h | 6.7 h
